From article PMC6017400, “Investigation into Improving the Aqueous Solubility of the Thieno[2,3-b]pyridine Anti-Proliferative Agents” (Molecules : A Journal of Synthetic Chemistry and Natural …, 2018)
≈ marks a conversion by molar mass, not a printed value. Where “and” joins values, the source holds several entries; their conditions need not be identical. Equal entries are not always repeated. Where two headings read alike, the source gives them in different places.

Key:
[1] = Aqueous thermodynamic solubility by HPLC; format: physicochemical; settings: for solubility thermodynamic at 15 min / solubility at 15 min: thermodynamic from solid; for solubility thermodynamic at 15 min / solubility at 15 min / Experimental S: water; for solubility thermodynamic at 15 min: read-out: Experimental S
Description: The aqueous thermodynamic solubility of derivatives 1–7 were measured using a standard HPLC (High Performance Liquid Chromatography) procedure. Solubility is defined as the amount of substance that passes into solution in order to establish the equilibrium at constant temperature and pressure and, thus, produce a saturated solution. The water solubility (log S) and log P were calculated for comparison.
Intrinsic aqueous drug solubility was determined by forming a supersaturated solution of the drug compound in water. The suspension was sonicated for 15 min and centrifuged at 13,000 rpm for 6 min. After 15 min the supernatant was decanted and the total drug content solubilised was analysed using reverse phase HPLC. The solution was analysed using an Agilent 1260 Infinity/DAD (100–900 nm) (Waldbronn, Germany) with a Zorbax eclipse XDB ([…], 4.6 mm × 150 mm) (Waldbronn, Germany) column. The mobile phase comprised of 80:20 acetonitrile: H2O containing 45 mM ammonium formate buffered to pH 3.5 with formic acid. Flow rate was 1 mL/min with 5 μL injection volume.

[2] = test system: MDA-MB-231 (breast) human tumour cell line; assay: Thymidine uptake cell proliferation assay; format: cell-based; settings: 1 μM, untreated cells = 100% growth
Description: (§1) Thymidine uptake was used for viability testing on the MDA-MB-231 (breast) and HCT116 (colon) human tumour cell lines. This measurement reflects the anti-proliferative/cytotoxic effects of the compounds. A concentration of 1 μM was used. […] To corroborate these findings, derivatives 3, 4, and 6 were tested against the National Cancer Institute’s human tumour cell line panel (NCI60). […] The leukaemia cell lines K-562 (45.5% growth) and SR (47.7% growth) were the most affected followed by the melanoma MDA-MB-435 (53.9% growth) cell line. This is an interesting observation since the thieno[2,3-b]pyridines are often active against leukaemia cells and the MDA-MB-435 cell line, in particular.
(§2) As described in detail previously cell proliferation was measured using a thymidine incorporation assay by seeding 3000 cells in each well using 96-well plates with varying concentrations of inhibitors for three days. Experiments were performed in triplicate with a minimum of two experimental repeats. Briefly, 0.04 µCi of ^3H-thymidine was added to each well and incubated for five hours, after which the cells were gathered onto glass fibre filters using an automated TomTec harvester. Filters were incubated with Betaplate Scint and thymidine incorporation determined with Trilux/Betaplate counter showing the percentage of cells incorporated with ^3H-thymidine into the DNA helix.

[3] = test system: HCT116 (colon) human tumour cell line; assay: Thymidine uptake cell proliferation assay; format: cell-based; settings: 1 μM, untreated cells = 100% growth
Description: as §1, §2

[4] = test system: NCI60 human tumour cell line panel; assay: NCI60 human tumour cell line panel growth inhibition (SRB); format: cell-based
Description: as §1
(§3) Furthermore, derivatives 3, 4, and 6 were sent to the National Cancer Institute’s Developmental Therapeutic Program (DTP) where they were screened against a panel of sixty human tumour cell lines (NCI60, for further information see [18, 29, 30] and a complete description in the Supplementary Materials section).
(§4) Figure S3. Compound 2 UV-vis calibration in DMSO at 304 nm.
(§5) NCI's 60-cell line panel growth inhibition assay
The NCI's human 60-cell lines were grown in RPMI 1640 medium containing 5% FBS and 2mM L-glutamine. Cells were inoculated into 96-well plates at plating densities 5000–40 000 cells per well, based on the doubling time of individual cell lines. Plates were then incubated at 37 °C, 5% CO2, 95% air and 100% relative humidity for 24 h prior to addition of tested compounds. After 24 h, two plates of each cell line were fixed in situ with trichloroacetic acid (TCA), to represent a measurement of the cell population for each cell line at the time of tested compound addition. Tested compounds were solubilized in DMSO at a concentration 400 times that of the desired final maximum test concentration and stored frozen prior to use. An aliquot of each frozen tested concentrate was thawed and diluted to twice the desired final maximum test concentration with complete medium containing 50 μg mL-1 gentamicin. 100 μL aliquot of the tested drug diluted solution was added to appropriate wells containing 100 μL of medium, resulting in the required final drug doses. Following tested compound addition, plates were incubated for additional 48 h. The assay was terminated by the addition of cold TCA for adherent cells. Cells were fixed in situ by addition of 50 μL of cold 50% (w/v) TCA (final concentration, 10% TCA) and incubated for 60 min at 4 °C. The supernatant was discarded, and plates were washed 5 times with water and air dried. Sulforhodamine B (SRB) solution (100 μL), 0.4%(w/v) in 1% acetic acid was added to each well, and plates were incubated for 10 min at rt. […] The bound stain was subsequently solubilized with 10 mM Trizma base, and the absorbance was measured on a plate reader at 515 nm. […]

[5] = test system: leukaemia cell line SR; assay: NCI60 panel growth inhibition (SRB); format: cell-based, human
Description: as §1, §3, §4, §5
(§6) The NCI's human 60-cell lines were grown in RPMI 1640 medium containing 5% FBS and 2mM L-glutamine. Cells were inoculated into 96-well plates at plating densities 5000–40 000 cells per well, based on the doubling time of individual cell lines. Plates were then incubated at 37 °C, 5% CO2, 95% air and 100% relative humidity for 24 h prior to addition of tested compounds. After 24 h, two plates of each cell line were fixed in situ with trichloroacetic acid (TCA), to represent a measurement of the cell population for each cell line at the time of tested compound addition. Tested compounds were solubilized in DMSO at a concentration 400 times that of the desired final maximum test concentration and stored frozen prior to use. […] The bound stain was subsequently solubilized with 10 mM Trizma base, and the absorbance was measured on a plate reader at 515 nm. […]

[6] = test system: melanoma MDA-MB-435 cell line; assay: NCI60 panel growth inhibition (SRB); format: cell-based, human; settings: MDA-MB-435, NCI60
Description: as §1, §3, §4, §5, §6

[7] = test system: leukaemia cell line K-562; assay: NCI60 panel growth inhibition (SRB); format: cell-based, human; settings: K-562, NCI60
Description: as §1, §3, §4, §5, §6

[8] = test system: HCT116; design: method as in PMID 22698703, doi:10.1039/c3md00320e, PMID 26966420; settings: cited from earlier work
[9] = test system: human pancreatic adenocarcinoma (BxPC-3) cells; assay: MTT cytotoxicity assay; format: cell-based
Description: Finally the viability was measured with the MTT assay in human pancreatic adenocarcinoma (BxPC-3) cells using 2 with and without the polymer encapsulation; the results are shown in Figure 6.
An MTT assay was carried out using human pancreatic adenocarcinoma (BxPC-3) cells. Cells were cultured in RPMI medium containing 10% FBS and 1% penicillin streptomycin (Penstrep). […] The experiments were performed in triplicate (n = 3) using eight wells per plate for each data point. […] Polymeric self-assemblies were formed by probe sonicating the polymers in sterile water (5 mg/mL). The polymer stock solutions were diluted to 0.005 mg/mL with media. A drug stock solution (20 mg/mL) was prepared by diluting compound 2 in DMSO. The formulations were prepared by addition of compound 2 into 0.005 mg/mL polymer solution.

[10] = test system: MDA-MB-231 (breast) human tumour cell line; design: method as in PMID 26966420; settings: read-out: IC50, thymidine uptake assay; cited from earlier work
[11] = test system: MDA-MB-231; design: method as in PMID 22698703, doi:10.1039/c3md00320e, PMID 26966420; settings: cited from earlier work
[12] = Drug loading into Ch5 polymer (UV-VIS); format: physicochemical; settings: 6 mg/mL, 10:1 feed ratio
Description: The maximum compound solubilisation observed was 6 mg/mL at a 10:1 ratio, with 0.59 mg/mL drug encapsulation being achieved.
Polymer solutions of 1 mg/mL, 3 mg/mL, and 6 mg/mL were made up in deionised water and probe sonicated for 10 min to ensure aggregation of the self-assemblies was achieved. Compound 2 was added in 1:1, 5:1, and 10:1 initial drug: excipient weight ratios and the drug-polymer solutions were probe sonicated for a further 10 min to ensure maximum encapsulation was achieved. After cooling to room temperature, the solutions were filtered using 0.45 µm syringe filters (with prefilters) to ensure any excess un-encapsulated drugs were removed. Drug quantification was carried out using UV-VIS spectroscopy with the samples diluted in DMSO. Absorbance was measured at 304 nm. Calibration was run from 0.0039–0.0313 mg/mL with R^2 = 0.992 (see Supplementary Materials Figure S3 for the calibration plot).

[13] = In vitro drug release from polymer into PBS; format: physicochemical; settings: 37 °C
Description: The formulation (1 mL) was pipetted inside dialysis tubing (MW cut off = 12–14 kDa) and dialysed against PBS in sink (100 mL, 0.2 M) at 37 °C with stirring. At various time points 1 mL of the external PBS was extracted and replaced with 1 mL of fresh PBS. The presence of drug in the collected PBS was determined using UV-VIS spectroscopy as before.

[14] = HPLC, read-out: Experimental S, log S (converted)

## Cn1c(C(=O)Nc2ccccc2)c(N)c2cc3c(nc21)CCCCCC3 [Compound 7]
[1]; HPLC
  solubility thermodynamic at 15 min: 0.61 µg/mL (≈ 1.75 µM)
[1]; [14]
  solubility at 15 min: 1.58 µM
[2]
  average relative growth, thymidine assay: 100.7%
[3]
  average relative growth, thymidine assay: 99.0%

## Cc1cccc(NC(=O)c2c(N)c3cc4c(nc3n2C)CCCC4)c1C [Compound 6]
[1]; HPLC
  solubility thermodynamic at 15 min: 0.76 µg/mL (≈ 2.18 µM)
[1]; [14]
  solubility at 15 min: 2 µM
[2]
  average relative growth, thymidine assay: 106.0%
[3]
  average relative growth, thymidine assay: 104.2%
[4]
  activity against NCI60 panel: very modest or no activity
[4]; untreated cells = 100% growth
  overall relative growth for the 60 cell lines: 77%
[5]
  growth: 47.7%
[6]
  growth: 53.9%
[7]
  growth: 45.5%

## Nc1c(C(=O)Nc2ccccc2)n(CCCc2ccccc2)c2nc3c(cc12)CCCC3 [Compound 4]
[1]; HPLC
  solubility thermodynamic at 15 min: 0.2 µg/mL (≈ 0.471 µM)
[1]; [14]
  solubility at 15 min: 0.501 µM
[2]
  average relative growth, thymidine assay: 105.4%
[3]
  average relative growth, thymidine assay: 103.6%
[4]
  activity against NCI60 panel: very modest or no activity

## Nc1c(C(=O)Nc2ccccc2)n(CCCN2CCOCC2)c2nc3c(cc12)CCCC3 [Compound 3]
[1]
  solubility increase as compared to 1: three orders of a magnitude
  water solubility: 1300 µg/mL (≈ 3000 µM)
[1]; HPLC
  Experimental S: 1339.8 µg/mL and 1336.7 µg/mL
[1]; [14]
  solubility at 15 min: 3160 µM
[1]; read-out: water solubility
  solubility at 15 min: ~1300 µg/mL
[2]
  average relative growth, thymidine assay: 99.5%
[3]
  average relative growth, thymidine assay: 90.3%
[4]
  activity against NCI60 panel: very modest or no activity

## Cc1c(Cl)cccc1NC(=O)c1sc2nc3c(cc2c1N)C(=O)CCC3 [Compound 2]
[8]
  GI50: 67 nM
[1]; HPLC
  solubility thermodynamic at 15 min: 3.53 µg/mL (≈ 9.15 µM)
[1]; [14]
  solubility at 15 min: 10 µM
[9]; BXPC-3, 24 h exposure, read-out: IC50, BxPC-3 viability (MTT)
  IC50: 2.5 µg/mL and 6.48 µM
[9]; BxPC-3, 5 μg/mL (12.95 μM), read-out: cell viability (activity remaining)
  viability at 12.95 µM: ~30%
[10]
  IC50: 164 nM
[11]
  GI50: 141 nM
[12]
  drug encapsulation (maximum) in Ch5 polymer: 0.59 mg/mL
[13]
  time to plateau of release from the polymer ensemble into the aqueous phase: ~ 40 min

## Nc1c(C(=O)Nc2ccccc2)sc2nc3c(cc12)C(=O)CCC3 [Compound 1, 3-amino-5-oxo-N-phenyl-5,6,7,8-tetrahydrothieno[2,3-b]quinoline-2-carboxamide]
[1]; HPLC
  solubility thermodynamic at 15 min: 1.21 µg/mL (≈ 3.59 µM)
  Experimental S: 1.2 µg/mL
[1]; [14]
  solubility at 15 min: 3.98 µM

## Cn1c(C(=O)Nc2cccc3ccccc23)c(N)c2cc3c(nc21)CCCC3 [Compound 5]
[1]; HPLC
  solubility thermodynamic at 15 min: 0.18 µg/mL (≈ 0.486 µM)
[1]; [14]
  solubility at 15 min: 0.501 µM
[2]
  average relative growth, thymidine assay: 97.2%
[3]
  average relative growth, thymidine assay: 102.1%
